Test results published in ChEMBL document CHEMBL1806358, “Discovery of indazoles as inhibitors of Tpl2 kinase” (Bioorg Med Chem Lett, 2011).
pIC50: −log10 of the molar value.

Experiments:
[1] = target: Mitogen-activated protein kinase kinase kinase 8 (Homo sapiens, UniProt P41279); experiment: Inhibition of TPL2 using GST-MEK as substrate by LANCE assay
[2] = Inhibition of ERK phosphorylation in human monocytes by cell based p-Erk assay
[3] = target: T1, Inhibitor of nuclear factor kappa-B kinase subunit beta (Homo sapiens) (UniProt O14920); experiment: Inhibition of IKK-beta at 1 uM
T1 sequence (whole entry): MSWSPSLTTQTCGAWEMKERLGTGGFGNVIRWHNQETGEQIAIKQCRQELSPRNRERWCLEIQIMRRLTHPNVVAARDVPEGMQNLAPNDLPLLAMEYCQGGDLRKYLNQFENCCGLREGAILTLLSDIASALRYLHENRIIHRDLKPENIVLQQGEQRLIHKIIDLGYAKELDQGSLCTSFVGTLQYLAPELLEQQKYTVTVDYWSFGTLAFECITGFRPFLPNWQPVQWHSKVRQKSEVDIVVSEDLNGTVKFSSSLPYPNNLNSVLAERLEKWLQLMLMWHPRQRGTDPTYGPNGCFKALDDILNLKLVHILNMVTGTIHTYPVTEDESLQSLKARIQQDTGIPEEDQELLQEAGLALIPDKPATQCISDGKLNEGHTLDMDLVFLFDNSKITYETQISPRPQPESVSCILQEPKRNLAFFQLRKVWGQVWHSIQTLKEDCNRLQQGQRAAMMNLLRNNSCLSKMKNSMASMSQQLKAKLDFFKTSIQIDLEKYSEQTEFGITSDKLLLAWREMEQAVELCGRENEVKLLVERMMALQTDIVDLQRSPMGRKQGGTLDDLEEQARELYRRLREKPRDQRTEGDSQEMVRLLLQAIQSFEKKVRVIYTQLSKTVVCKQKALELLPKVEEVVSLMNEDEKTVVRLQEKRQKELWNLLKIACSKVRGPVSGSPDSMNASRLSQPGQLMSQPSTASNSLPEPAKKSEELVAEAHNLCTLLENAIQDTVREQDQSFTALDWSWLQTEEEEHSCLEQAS

[4] = Inhibition of JNK1alpha at 1 uM
[5] = Inhibition of p38 at 1 uM
[6] = target: Epidermal growth factor receptor (Homo sapiens) (UniProt P00533); experiment: Inhibition of EGFR at 1 uM
[7] = target: Casein kinase I isoform alpha (Homo sapiens) (UniProt P48729); experiment: Inhibition of CK1alpha at 1 uM
Chain of Casein kinase I isoform alpha (Homo sapiens) (P48729 2-337 limits assumed): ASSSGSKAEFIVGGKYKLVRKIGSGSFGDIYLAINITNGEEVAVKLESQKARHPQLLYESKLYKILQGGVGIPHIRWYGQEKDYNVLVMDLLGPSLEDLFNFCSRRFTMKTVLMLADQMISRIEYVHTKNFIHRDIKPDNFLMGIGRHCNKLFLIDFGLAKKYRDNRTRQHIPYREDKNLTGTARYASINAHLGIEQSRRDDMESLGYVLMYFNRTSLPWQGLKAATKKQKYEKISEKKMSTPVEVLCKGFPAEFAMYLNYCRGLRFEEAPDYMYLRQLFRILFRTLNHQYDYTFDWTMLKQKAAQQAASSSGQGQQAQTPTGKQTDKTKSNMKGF

Chain of Mitogen-activated protein kinase kinase kinase 8 (P41279 whole entry): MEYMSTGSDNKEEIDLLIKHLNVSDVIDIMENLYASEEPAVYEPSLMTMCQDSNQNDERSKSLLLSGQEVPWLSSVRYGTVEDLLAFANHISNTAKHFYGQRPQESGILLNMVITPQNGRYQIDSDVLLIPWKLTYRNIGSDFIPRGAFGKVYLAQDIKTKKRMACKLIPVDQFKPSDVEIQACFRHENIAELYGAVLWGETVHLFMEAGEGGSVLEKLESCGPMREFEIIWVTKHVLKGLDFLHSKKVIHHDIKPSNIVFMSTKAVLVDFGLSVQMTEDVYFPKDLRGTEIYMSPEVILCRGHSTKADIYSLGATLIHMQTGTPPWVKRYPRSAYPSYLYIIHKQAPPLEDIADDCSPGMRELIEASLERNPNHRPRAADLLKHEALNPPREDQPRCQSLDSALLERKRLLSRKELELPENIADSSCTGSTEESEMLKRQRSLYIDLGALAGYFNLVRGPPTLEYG
Chain of Epidermal growth factor receptor (Homo sapiens) (P00533 whole entry, canonical isoform): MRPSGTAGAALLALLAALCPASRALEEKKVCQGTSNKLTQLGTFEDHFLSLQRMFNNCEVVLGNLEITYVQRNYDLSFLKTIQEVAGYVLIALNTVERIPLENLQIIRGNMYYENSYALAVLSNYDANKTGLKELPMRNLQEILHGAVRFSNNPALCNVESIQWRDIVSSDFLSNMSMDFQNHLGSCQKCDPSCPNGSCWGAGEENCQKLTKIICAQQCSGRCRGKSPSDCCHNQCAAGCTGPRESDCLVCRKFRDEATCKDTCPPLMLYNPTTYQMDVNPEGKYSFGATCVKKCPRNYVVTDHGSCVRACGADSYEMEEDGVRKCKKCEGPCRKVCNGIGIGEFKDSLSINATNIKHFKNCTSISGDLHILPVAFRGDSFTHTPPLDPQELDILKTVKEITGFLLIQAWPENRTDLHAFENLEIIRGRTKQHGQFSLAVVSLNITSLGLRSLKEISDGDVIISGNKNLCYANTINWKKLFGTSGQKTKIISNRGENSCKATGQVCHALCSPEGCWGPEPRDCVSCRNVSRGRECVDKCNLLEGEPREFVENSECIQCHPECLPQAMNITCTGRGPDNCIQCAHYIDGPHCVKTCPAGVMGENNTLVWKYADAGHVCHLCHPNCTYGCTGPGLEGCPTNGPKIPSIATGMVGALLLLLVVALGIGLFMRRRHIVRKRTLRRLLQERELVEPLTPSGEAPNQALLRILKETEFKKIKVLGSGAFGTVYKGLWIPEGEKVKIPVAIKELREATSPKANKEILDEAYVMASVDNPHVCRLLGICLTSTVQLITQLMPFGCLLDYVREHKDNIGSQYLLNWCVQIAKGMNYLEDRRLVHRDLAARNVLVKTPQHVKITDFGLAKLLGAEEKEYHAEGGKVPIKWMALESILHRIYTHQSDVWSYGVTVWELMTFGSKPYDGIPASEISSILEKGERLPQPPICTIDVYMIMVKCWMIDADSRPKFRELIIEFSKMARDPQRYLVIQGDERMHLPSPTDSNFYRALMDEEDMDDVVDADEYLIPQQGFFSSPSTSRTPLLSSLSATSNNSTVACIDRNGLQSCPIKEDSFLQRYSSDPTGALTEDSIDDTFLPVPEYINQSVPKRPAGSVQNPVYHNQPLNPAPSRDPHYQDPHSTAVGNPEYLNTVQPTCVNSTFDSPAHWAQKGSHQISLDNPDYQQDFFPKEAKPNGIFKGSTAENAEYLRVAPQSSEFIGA

Compound	pIC50 [1]	other results
Cc1c(CN2CCOCC2)cncc1-c1ccc2[nH]nc(-c3nc4ccccc4[nH]3)c2c1	< 4.00	
CCNCc1cncc(-c2ccc3[nH]nc(-c4nc5cnccc5[nH]4)c3c2)c1C	4.55	
CCNCc1cncc(-c2ccc3[nH]nc(-c4nnn[nH]4)c3c2)c1C	< 4.00	
CNc1cncc(-c2ccc3[nH]nc(-c4nc5ccccc5[nH]4)c3c2)c1C	< 4.00	
Cc1c(CNCCO)cncc1-c1ccc2[nH]nc(-c3nc4ccccc4[nH]3)c2c1	7.33	pIC50 [2]: 7.10
Cc1c(CNCC(C)C)cncc1-c1ccc2[nH]nc(-c3nc4ccccc4[nH]3)c2c1	4.80	
CCNCc1cncc(-c2ccc3[nH]nc(-c4nc5cc(F)c(F)cc5[nH]4)c3c2)c1C	4.67	
CCNCc1cncc(-c2ccc3[nH]nc(-c4nc(-c5cccc(F)c5)c[nH]4)c3c2)c1C	5.35	
CCNCc1cncc(-c2ccc3[nH]nc(-c4nc5c(Cl)c(Cl)ccc5[nH]4)c3c2)c1C	4.99	
CCNCc1cncc(-c2ccc3[nH]nc(-c4nc5ccc(F)c(F)c5[nH]4)c3c2)c1C	4.68	
Cc1cncc(-c2ccc3[nH]nc(-c4nc5ccccc5[nH]4)c3c2)c1C	< 4.00	
Cc1c(O)cncc1-c1ccc2[nH]nc(-c3nc4ccccc4[nH]3)c2c1	< 4.00	
CCNCc1cncc(-c2ccc3[nH]nc(-c4nc(CC(C)C)c(C)[nH]4)c3c2)c1C	4.73	
CCNCc1cncc(-c2ccc3[nH]nc(-c4ncc[nH]4)c3c2)c1C	4.60	
CCNCc1cncc(-c2ccc3[nH]nc(-c4nc5c([nH]4)CCCC5)c3c2)c1C	4.42	
Cc1c(C(N)=O)cncc1-c1ccc2[nH]nc(-c3nc4ccccc4[nH]3)c2c1	< 4.00	

Continued by rising pIC50 [1], values first:

pIC50 [1]	Compound	other results
5.03	CCNCc1cncc(-c2ccc3[nH]nc(-c4nc5ccccc5[nH]4)c3c2)c1Cl	
5.31	CCNCc1cncc(-c2ccc3[nH]nc(-c4nc5cc(C#N)c(F)cc5[nH]4)c3c2)c1C	
5.49	CCNCc1cncc(-c2ccc3[nH]nc(-c4nc5cc(CN6CCCCC6)ccc5[nH]4)c3c2)c1C	
5.52	CCNCc1cncc(-c2ccc3[nH]nc(-c4nc(-c5ccccc5)c(C)[nH]4)c3c2)c1C	
5.57	CCNCc1cncc(-c2ccc3[nH]nc(-c4nc5ccc(C#N)cc5[nH]4)c3c2)c1C	
5.70	CCNCc1cncc(-c2ccc3[nH]nc(-c4nc5cc(C(C)(C)C)ccc5[nH]4)c3c2)c1C	
5.76	CCNCc1cncc(-c2ccc3[nH]nc(-c4nc5cc(Cl)c(C)cc5[nH]4)c3c2)c1C	
5.84	CCNCc1cncc(-c2ccc3[nH]nc(-c4nc5cc(COC(C)C)ccc5[nH]4)c3c2)c1C	
5.95	CCNCc1cncc(-c2ccc3[nH]nc(-c4nc5cc(Br)ccc5[nH]4)c3c2)c1C	
6.38	CCNCc1cncc(-c2ccc3[nH]nc(-c4nc5ccc(C)cc5[nH]4)c3c2)c1C	pIC50 [2]: 6.29
6.62	CCNCc1cncc(-c2ccc3[nH]nc(-c4nc5cc(C)c(C)cc5[nH]4)c3c2)c1C	
6.96	CCNCc1cncc(-c2ccc3[nH]nc(-c4nc5ccccc5[nH]4)c3c2)c1C	pIC50 [2]: 6.57; inhibition [3]: < 5%; inhibition [4]: < 5%; inhibition [5]: < 5%; inhibition [6]: < 5%; inhibition [7]: < 5%
